Speed of sound, mass density and surface tension liquid-gas data for three compounds are collected here from the NIST ThermoML archive (doi:10.1021/je800594e).

± gives the expanded uncertainty stated by the source.

The conditions of the first data set: 288.15 K; 101.33 kPa; Liquid; Pulse-echo method.
For `Cc1ccc(C)cc1` [1,4-dimethylbenzene], the speed of sound was 1350.7 ± 1.6 m/s.
The same measure, in the same setting: for `COC(=O)OC` [dimethyl carbonate] the value was 1240.7 ± 1.5 m/s.
The same measure, in the same setting: for `CCCCCCCC` [octane] the value was 1213.6 ± 1.5 m/s.

The data set is the same for the next values; noted with them: 288.15 K; 101.33 kPa; Liquid; Vibrating tube method.
Consider `Cc1ccc(C)cc1` [1,4-dimethylbenzene], for which the mass density was found to be 865.2 ± 0.24 kg/m3.
Regarding `COC(=O)OC` [dimethyl carbonate], the mass density was determined as 1076.64 ± 0.3 kg/m3.
Same read-out and setting: for `CCCCCCCC` [octane] the value was 706.58 ± 0.25 kg/m3.

Still in this data set, the particulars now being: 293.15 K; 101.33 kPa; Liquid; Pulse-echo method.
Regarding `Cc1ccc(C)cc1` [1,4-dimethylbenzene], the speed of sound is on record as 1329.6 ± 1.6 m/s.
As for `COC(=O)OC` [dimethyl carbonate], the speed of sound was 1218.1 ± 1.5 m/s.
Take `CCCCCCCC` [octane]: the speed of sound worked out at 1192.9 ± 1.5 m/s.

The data set is the same for the next values; noted with them: 293.15 K; 101.33 kPa; Liquid; Vibrating tube method.
With `Cc1ccc(C)cc1` [1,4-dimethylbenzene], the mass density was 860.9 ± 0.24 kg/m3.
With `COC(=O)OC` [dimethyl carbonate], the mass density was determined as 1070.01 ± 0.29 kg/m3.
Regarding `CCCCCCCC` [octane], the mass density was 702.57 ± 0.25 kg/m3.

Still in this data set, the particulars now being: 298.15 K, Drop volume.
With `Cc1ccc(C)cc1` [1,4-dimethylbenzene], the surface tension liquid-gas is given as 27.43 ± 0.2 mN/m.
Regarding `COC(=O)OC` [dimethyl carbonate], the surface tension liquid-gas came to 28.08 ± 0.21 mN/m.
`CCCCCCCC` [octane]: the surface tension liquid-gas came out at 20.99 ± 0.17 mN/m.

The same data set, now with this note: 298.15 K; 101.33 kPa; Liquid; Pulse-echo method.
On to `Cc1ccc(C)cc1` [1,4-dimethylbenzene], for which the speed of sound stood at 1308.4 ± 1.5 m/s.
Turning to `COC(=O)OC` [dimethyl carbonate], the speed of sound came to 1195.1 ± 1.5 m/s.
On to `CCCCCCCC` [octane], for which the speed of sound worked out at 1171.9 ± 1.5 m/s.

The same data set, now with this note: 298.15 K; 101.33 kPa; Liquid; Vibrating tube method.
Take `Cc1ccc(C)cc1` [1,4-dimethylbenzene]: the mass density turned out to be 856.58 ± 0.24 kg/m3.
With `COC(=O)OC` [dimethyl carbonate], the mass density stood at 1063.39 ± 0.28 kg/m3.
The same measure, in the same setting: for `CCCCCCCC` [octane] the value was 698.55 ± 0.25 kg/m3.

The same data set, now with this note: 303.15 K; 101.33 kPa; Liquid; Pulse-echo method.
For `Cc1ccc(C)cc1` [1,4-dimethylbenzene], the speed of sound was determined as 1287.4 ± 1.5 m/s.
The same measure, in the same setting: next, `COC(=O)OC` [dimethyl carbonate]: 1173.2 ± 1.5 m/s.
Still for that read-out and setting: for `CCCCCCCC` [octane] the value was 1150.9 ± 1.5 m/s.

The data set is the same for the next values; noted with them: 303.15 K; 101.33 kPa; Liquid; Vibrating tube method.
Consider `Cc1ccc(C)cc1` [1,4-dimethylbenzene], for which the mass density was determined as 852.21 ± 0.24 kg/m3.
Take `COC(=O)OC` [dimethyl carbonate]: the mass density is on record as 1056.78 ± 0.28 kg/m3.
`CCCCCCCC` [octane]: the mass density was 694.48 ± 0.25 kg/m3.

The data set is the same for the next values; noted with them: 308.15 K; 101.33 kPa; Liquid; Pulse-echo method.
With `Cc1ccc(C)cc1` [1,4-dimethylbenzene], the speed of sound is reported as 1266.4 ± 1.5 m/s.
For the compound `COC(=O)OC` [dimethyl carbonate], the speed of sound amounted to 1151.5 ± 1.5 m/s.
Regarding `CCCCCCCC` [octane], the speed of sound came out at 1130.3 ± 1.5 m/s.

The same data set, now with this note: 308.15 K; 101.33 kPa; Liquid; Vibrating tube method.
For the compound `Cc1ccc(C)cc1` [1,4-dimethylbenzene], the mass density is given as 847.83 ± 0.24 kg/m3.
Turning to `COC(=O)OC` [dimethyl carbonate], the mass density came to 1050.15 ± 0.27 kg/m3.
The same measure, in the same setting: for `CCCCCCCC` [octane] the value was 690.42 ± 0.25 kg/m3.

As a reminder, the speed of sound is the propagation velocity of pressure waves in the medium. The mass density is the mass of a sample divided by its volume. For orientation: surface tension liquid-gas means the work needed to enlarge the surface of a liquid by unit area.
